{"source": "patent US20220008359A1", "about": "“COMBINATION ANTI-CANCER PRODUCTS AND METHODS” (priority 2020, published 2022)", "test_system": "osimertinib-resistant (OR) H1975 cells", "assay": "In-cell immunostaining of protein expression and phosphorylation, osimertinib-resistant H1975 cells", "type": "cell-based, human", "design": "HDAC 1 expression / HDAC 2 expression / HDAC 3 expression / HDAC 4 expression / HDAC 5 expression / HDAC 6 expression / HDAC 7 expression / HDAC 8 expression / HDAC 9 expression / HDAC 10 expression / HDAC 11 expression: scale not given here", "settings": "6 h", "method": "Generation of erlotinib, afatinib and osimertinib-resistant cells. Cells were incubated in vitro with increasing concentrations of vehicle control or erlotinib or osimertinib until after ˜6 weeks the HCC827 and H1975 and H1650 cells grew with similar kinetics to sensitive cells in either erlotinib ([…]) or osimertinib ([…]), respectively. Afatinib-resistant cells were created in vivo by repeated high dosing until tumors disappeared and then regrew, as previously described.\nAssessments of protein expression and protein phosphorylation. Multi-channel fluorescence HCS microscopes perform true in-cell western blotting. Three independent cultures derived from three thawed vials of cells of a tumor were sub-cultured into individual 96-well plates. Twenty-four hours after plating, the cells are transfected with a control plasmid or a control siRNA, or with an empty vector plasmid or with plasmids to express various proteins. After another 24 hours, the cells are ready for drug exposure(s). At various time-points after the initiation of drug exposure, cells are fixed in place using paraformaldehyde and using Triton X100 for permeabilization. Standard immunofluorescent blocking procedures are employed, followed by incubation of different wells with a variety of validated primary antibodies and subsequently validated fluorescent-tagged secondary antibodies are added to each well. The microscope determines the background fluorescence in the well and in parallel randomly determines the mean fluorescent intensity of 100 cells per well.", "key": {"[1]": {"settings": "1975 OR, GZ17-6.02 2 mM final curcumin, pemetrexed 500 nM"}, "[2]": {"settings": "1975 OR, GZ17-6.02 2 mM final curcumin, pemetrexed 500 nM, vehicle 100%"}, "[3]": {"settings": "1975 OR, GZ17-6.02, pemetrexed 500 nM, vehicle 100%"}}, "note": "Marks after values point to notes of the source that are not given here.", "data": [{"compound": "Nc1nc2[nH]cc(CCc3ccc(C(=O)N[C@@H](CCC(=O)O)C(=O)O)cc3)c2c(=O)[nH]1", "note": "[PEM, Pemetrexed]", "values": [{"measurement": "ERK2 expression", "setting": "[1]", "result": 101}, {"measurement": "HDAC 1 expression", "setting": "[1]", "result": 97}, {"measurement": "HDAC 2 expression", "setting": "[1]", "result": 93}, {"measurement": "HDAC 3 expression", "setting": "[1]", "result": 98}, {"measurement": "HDAC 4 expression", "setting": "[1]", "result": 100}, {"measurement": "HDAC 5 expression", "setting": "[1]", "result": 95}, {"measurement": "HDAC 6 expression", "setting": "[1]", "result": 93}, {"measurement": "HDAC 7 expression", "setting": "[1]", "result": 98}, {"measurement": "HDAC 8 expression", "setting": "[1]", "result": 101}, {"measurement": "HDAC 9 expression", "setting": "[1]", "result": 97}, {"measurement": "HDAC 10 expression", "setting": "[1]", "result": 100}, {"measurement": "HDAC 11 expression", "setting": "[1]", "result": 101}, {"measurement": "ATG5", "setting": "[2]", "result": 110, "unit": "%"}, {"measurement": "Beclin1", "setting": "[2]", "result": 111, "unit": "%"}, {"measurement": "CD95", "setting": "[2]", "result": 100, "unit": "%"}, {"measurement": "CHOP", "setting": "[2]", "result": 107, "unit": "%"}, {"measurement": "ERBB1", "setting": "[2]", "result": 99, "unit": "%"}, {"measurement": "ERBB2", "setting": "[2]", "result": 100, "unit": "%"}, {"measurement": "ERBB3", "setting": "[2]", "result": 101, "unit": "%"}, {"measurement": "ERBB4", "setting": "[2]", "result": 100, "unit": "%"}, {"measurement": "ERK2", "setting": "[2]", "result": 100, "unit": "%"}, {"measurement": "FAS-L", "setting": "[2]", "result": 110, "unit": "%"}, {"measurement": "GRP78", "setting": "[2]", "result": "115# %"}, {"measurement": "P-AMPKα T172", "setting": "[2]", "result": 112, "unit": "%"}, {"measurement": "P-ATG13 S318", "setting": "[2]", "result": 106, "unit": "%"}, {"measurement": "P-ATM S1980", "setting": "[2]", "result": 109, "unit": "%"}, {"measurement": "P-B1", "setting": "[2]", "result": 88, "unit": "%"}, {"measurement": "P-B2", "setting": "[2]", "result": 92, "unit": "%"}, {"measurement": "P-B3", "setting": "[2]", "result": 93, "unit": "%"}, {"measurement": "P-B4", "setting": "[2]", "result": 95, "unit": "%"}, {"measurement": "P-ERK1/2", "setting": "[2]", "result": 96, "unit": "%"}, {"measurement": "P-JAK2", "setting": "[2]", "result": 89, "unit": "%"}, {"measurement": "P-NFκB S536", "setting": "[2]", "result": 92, "unit": "%"}, {"measurement": "P-PDGFRβ", "setting": "[2]", "result": 98, "unit": "%"}, {"measurement": "P-PERK T980", "setting": "[2]", "result": 101, "unit": "%"}, {"measurement": "P-SRC Y416", "setting": "[2]", "result": 90, "unit": "%"}, {"measurement": "P-SRC Y527", "setting": "[2]", "result": 112, "unit": "%"}, {"measurement": "P-STAT3 Y705", "setting": "[2]", "result": 88, "unit": "%"}, {"measurement": "P-STAT5 Y694", "setting": "[2]", "result": "87* %"}, {"measurement": "P-ULK1 S317", "setting": "[2]", "result": 103, "unit": "%"}, {"measurement": "P-ULK1 S757", "setting": "[2]", "result": 96, "unit": "%"}, {"measurement": "P-c-MET", "setting": "[2]", "result": 88, "unit": "%"}, {"measurement": "P-c-MT", "setting": "[2]", "result": 90, "unit": "%"}, {"measurement": "P-eIF2α S51", "setting": "[2]", "result": 101, "unit": "%"}, {"measurement": "P-mTOR S2448", "setting": "[2]", "result": 94, "unit": "%"}, {"measurement": "P-mTOR S2481", "setting": "[2]", "result": 92, "unit": "%"}, {"measurement": "PDGFRβ", "setting": "[2]", "result": 100, "unit": "%"}, {"measurement": "PP1", "setting": "[2]", "result": 105, "unit": "%"}, {"measurement": "c-KIT", "setting": "[2]", "result": 101, "unit": "%"}, {"measurement": "c-MET", "setting": "[2]", "result": 100, "unit": "%"}, {"measurement": "p70 S6K", "setting": "[2]", "result": 101, "unit": "%"}, {"measurement": "p70 S6K T389", "setting": "[2]", "result": 98, "unit": "%"}, {"measurement": "JAK2", "setting": "[3]", "result": 98, "unit": "%"}, {"measurement": "P-AKT T308", "setting": "[3]", "result": "87* %"}, {"measurement": "BCL-XL expression", "setting": "H1975 OR, VEH = 100", "result": 90}, {"measurement": "ERK2 expression", "setting": "H1975 OR, VEH = 100", "result": 101}, {"measurement": "FLIP-s expression", "setting": "H1975 OR, VEH = 100", "result": 98}, {"measurement": "MCL-1 expression", "setting": "H1975 OR, VEH = 100", "result": "84*"}]}]}
